# Measured values: patent US12415797B2, “Heterocyclic compound as CDK-HDAC double-channel inhibitor” (Hangzhou Innogate Pharma Co., Ltd., priority 2018, dated 2025)
# Read-outs that look alike come from different tables or passages of the source.
# What was measured:
# Assay type in all cases: biochemical
# HDAC-1 = HDAC-1 (Homo sapiens (Human), UniProt Q13547); experiment: HDAC-1 fluorogenic deacetylase assay (Ac-peptide-AMC); conditions: recombinant, full-length protein, Ac-peptide-AMC substrate; read-out: HDAC1 (IC50)
# Chain of HDAC-1 (Q13547 whole entry): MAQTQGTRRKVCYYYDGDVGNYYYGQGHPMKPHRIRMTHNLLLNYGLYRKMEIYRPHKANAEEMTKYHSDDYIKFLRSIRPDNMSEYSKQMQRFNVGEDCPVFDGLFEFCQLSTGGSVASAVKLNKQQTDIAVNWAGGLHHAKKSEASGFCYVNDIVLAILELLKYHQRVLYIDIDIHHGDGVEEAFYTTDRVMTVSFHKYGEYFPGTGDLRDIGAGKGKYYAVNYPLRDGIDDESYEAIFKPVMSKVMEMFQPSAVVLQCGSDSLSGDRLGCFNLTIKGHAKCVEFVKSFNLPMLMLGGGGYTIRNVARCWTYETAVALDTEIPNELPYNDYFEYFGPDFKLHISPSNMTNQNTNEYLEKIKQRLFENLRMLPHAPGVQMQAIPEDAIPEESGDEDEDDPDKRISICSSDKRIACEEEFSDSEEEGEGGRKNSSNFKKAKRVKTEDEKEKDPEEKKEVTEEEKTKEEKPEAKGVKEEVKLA
# Experimental: (§1) The inhibitory effect of compounds on HDAC-1 and HDAC-6 function was determined in vitro using an optimized homogenous assay performed in 384-well plate format. In this assay, the recombinant, full-length HDAC-1, HDAC-2 or HDAC-6 protein (BPS Biosciences) was incubated with Ac-peptide-AMC with concentrations in the Km plot. Reactions were performed in Tris-based assay buffer and were followed for fluorogenic release of 7-amino-4-methylcoumarin from substrate upon deacetylase and trypsin enzymatic activity. Fluorescence measurements were obtained using a multilabel plate reader (Synergy MX with excitation at 355 nm and emission at 460 nm). Data were analyzed on a plate-by-plate basis for the linear range of fluorescence over time. Fit the data in GraphPad Prism V5.0 software to obtain IC50 values using equation (Y=Bottom+(Top-Bottom)/(1+10^((Log IC50−X)*Hill Slope), Y is % inhibition and X is compound concentration).
# CDK4/CycD3 = CDK4/CycD3 (Homo sapiens (Human), UniProt P11802); experiment: CDK4/CycD3 kinase Mobility Shift Assay; conditions: CDK4/CycD3 10 nM, ATP Km 221 μM, 180 min, 28° C.
# Chain of CDK4/CycD3 (P11802 whole entry, species assumed, canonical isoform): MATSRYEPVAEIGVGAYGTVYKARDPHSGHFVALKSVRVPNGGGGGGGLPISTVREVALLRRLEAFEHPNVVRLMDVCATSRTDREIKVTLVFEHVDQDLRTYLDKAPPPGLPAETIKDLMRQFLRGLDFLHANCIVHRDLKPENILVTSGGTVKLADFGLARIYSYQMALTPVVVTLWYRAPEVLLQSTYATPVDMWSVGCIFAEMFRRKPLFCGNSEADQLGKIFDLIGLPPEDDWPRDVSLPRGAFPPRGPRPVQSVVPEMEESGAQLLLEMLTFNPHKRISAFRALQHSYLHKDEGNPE
# Chain of CDK4/CycD3 (P30281 whole entry partner, species assumed, canonical isoform): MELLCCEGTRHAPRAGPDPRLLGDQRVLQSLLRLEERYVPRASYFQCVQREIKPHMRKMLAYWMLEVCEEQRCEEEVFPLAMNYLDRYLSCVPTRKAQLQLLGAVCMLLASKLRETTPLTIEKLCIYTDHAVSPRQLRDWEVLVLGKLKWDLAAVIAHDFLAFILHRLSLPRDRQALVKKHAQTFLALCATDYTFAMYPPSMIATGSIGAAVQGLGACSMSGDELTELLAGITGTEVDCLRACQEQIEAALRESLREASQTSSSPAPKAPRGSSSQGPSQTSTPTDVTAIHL
# Experimental: (§2) In vitro enzymatic activity of the CDK isoforms CDK2/CycA2, CDK4/CycD3 and CDK6/cycD3 were measured using Mobility Shift Assay that monitors phosphorylation ratio of FAM labelled peptide (Peptide 18 for CDK2/CycA2, Peptide 8 for CDK4/CycD3). CDK2/CycA2 and CDK6/CycD3 were assayed under buffer conditions in the presence of 50 mM HEPES (pH 7.5), 10 mM MgCl2, 0.0015% Brij-35 and 2 mM dithiothreitol; CDK4/CycD3 with buffer condition of 20 mM HEPES (pH 7.5), 10 mM MgCl2, 0.01% Triton X-100 and 2 mM dithiothreitol. Prepare compounds to 50× of the final desired highest inhibitor concentration by 100% DMSO and serial dilution in 3-fold for total of 10 concentrations. For each isoform, dosage of enzyme and substrate are CDK2/CycA2 12 nM, ATP Km 39 μM; CDK4/CycD3 10 nM, ATP Km […]; CDK6/cycD3 15 nM, ATP Km 800 μM. After assay for 60 min, 180 min, 60 min respectively at 28° C., reactions were terminated with stop solution (50 mM EDTA, 0.015% Brij-35, 0.2% Coating Reagent #3 and 100 mM HEPES (pH 7.5)). Collect conversion on Caliper EZ Reader. IC50 values were calculated by fitting the dose-response curves with Xlfit excel add-in version 4.3.1.
# CDK2/CycA2 = CDK2/CycA2 (Homo sapiens (Human), UniProt P24941); experiment: CDK2/CycA2 kinase Mobility Shift Assay; conditions: CDK2/CycA2 12 nM, ATP Km 39 μM, 60 min, 28° C.
# Experimental: as §2
# CDK6/cycD3 = CDK6/cycD3 (Homo sapiens (Human), UniProt Q00534); experiment: CDK6/cycD3 kinase Mobility Shift Assay; conditions: CDK6/cycD3 15 nM, ATP Km 800 μM, 60 min, 28° C.
# Chain of CDK6/cycD3 (Q00534 whole entry, species assumed): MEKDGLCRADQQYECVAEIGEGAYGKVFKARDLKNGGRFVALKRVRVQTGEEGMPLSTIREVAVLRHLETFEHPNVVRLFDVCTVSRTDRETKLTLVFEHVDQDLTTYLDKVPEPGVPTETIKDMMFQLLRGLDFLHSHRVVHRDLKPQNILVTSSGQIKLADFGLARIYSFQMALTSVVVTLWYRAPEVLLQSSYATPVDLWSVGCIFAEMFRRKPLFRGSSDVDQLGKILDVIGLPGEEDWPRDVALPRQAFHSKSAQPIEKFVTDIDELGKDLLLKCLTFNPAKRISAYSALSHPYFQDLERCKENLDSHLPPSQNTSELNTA
# Chain of CDK6/cycD3 (P30281 whole entry partner, species assumed): as the sequence (P30281 whole entry partner, species assumed, canonical isoform) above
# Experimental: as §2
# HDAC-6 = HDAC-6 (Homo sapiens (Human), UniProt Q9UBN7); experiment: HDAC-6 fluorogenic deacetylase assay (Ac-peptide-AMC); conditions: read-out: HDAC6 (IC5)
# Chain of HDAC-6 (Q9UBN7 whole entry): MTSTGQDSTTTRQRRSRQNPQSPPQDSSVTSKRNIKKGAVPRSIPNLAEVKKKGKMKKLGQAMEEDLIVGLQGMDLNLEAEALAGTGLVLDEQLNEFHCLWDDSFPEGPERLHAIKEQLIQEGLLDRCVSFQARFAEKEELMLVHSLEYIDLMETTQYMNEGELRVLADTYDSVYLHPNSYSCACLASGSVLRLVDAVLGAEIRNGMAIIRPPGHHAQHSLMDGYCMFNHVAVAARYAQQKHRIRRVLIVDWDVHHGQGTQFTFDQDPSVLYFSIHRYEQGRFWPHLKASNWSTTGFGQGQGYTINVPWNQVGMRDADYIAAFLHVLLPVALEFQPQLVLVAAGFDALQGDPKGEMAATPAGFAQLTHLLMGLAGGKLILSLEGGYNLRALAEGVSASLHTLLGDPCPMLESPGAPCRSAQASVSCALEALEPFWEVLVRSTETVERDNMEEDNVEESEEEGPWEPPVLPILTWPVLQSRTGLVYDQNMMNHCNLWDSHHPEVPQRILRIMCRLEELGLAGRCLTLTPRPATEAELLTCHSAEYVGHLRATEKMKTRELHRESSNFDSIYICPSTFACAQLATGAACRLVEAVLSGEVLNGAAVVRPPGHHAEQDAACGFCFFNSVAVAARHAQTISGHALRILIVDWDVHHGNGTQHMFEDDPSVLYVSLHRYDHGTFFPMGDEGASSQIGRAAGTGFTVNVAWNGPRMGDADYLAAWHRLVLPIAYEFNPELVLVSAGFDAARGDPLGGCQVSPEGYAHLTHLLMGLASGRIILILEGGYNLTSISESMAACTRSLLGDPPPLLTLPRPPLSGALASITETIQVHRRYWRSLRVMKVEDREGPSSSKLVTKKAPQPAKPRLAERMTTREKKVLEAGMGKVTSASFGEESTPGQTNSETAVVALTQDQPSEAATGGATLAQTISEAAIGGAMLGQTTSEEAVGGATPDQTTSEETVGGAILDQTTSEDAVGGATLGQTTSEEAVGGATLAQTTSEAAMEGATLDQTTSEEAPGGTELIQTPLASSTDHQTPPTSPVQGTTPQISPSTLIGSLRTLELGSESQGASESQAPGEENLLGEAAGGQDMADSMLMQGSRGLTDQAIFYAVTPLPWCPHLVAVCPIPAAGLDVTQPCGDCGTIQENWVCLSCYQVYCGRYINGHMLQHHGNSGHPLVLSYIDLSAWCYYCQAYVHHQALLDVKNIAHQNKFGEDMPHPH
# Experimental: as §1
# [1] = recombinant, full-length protein, Ac-peptide-AMC substrate
Compound,IC50 (HDAC-1) [nM],IC50 (CDK4/CycD3) [nM],IC50 (CDK2/CycA2) [nM],IC50 (CDK6/cycD3) [nM],IC50 (HDAC-6; [1]) [nM],IC50 (HDAC-6) [nM]
"Cc1nc2c(F)cc(-c3nc(Nc4ccc(N5CCC(C(=O)NO)CC5)cn4)ncc3F)cc2n1C(C)C [Compound 15, 1-(6-((5-fluoro-4-(4-fluoro-1-isopropyl-2-methyl-1H-benzo[d]imidazol-6-yl)pyrimidin-2-yl)amino)pyridin-3-yl)-N-hydroxypiperidine-4-carboxamide]",≥ 1000,< 10,10 to 100,10 to 100,100 to 500,
"Cc1nc2c(F)cc(-c3nc(Nc4ccc(-c5ccc(C(=O)NO)cn5)cn4)ncc3F)cc2n1C(C)C [Compound 16, 6′-((5-fluoro-4-(4-fluoro-1-isopropyl-2-methyl-1H-benzo[d]imidazol-6-yl)pyrimidin-2-yl)amino)-N-hydroxy-[2,3′-bipyridine]-5-carboxamide]",≥ 1000,< 10,< 10,10 to 100,100 to 500,
"Cc1nc2c(F)cc(-c3nc(Nc4ccc(CN5CCN(CCCCCCC(=O)NO)CC5)cn4)ncc3F)cc2n1C(C)C [Compound 1, 7-(4-((6-((5-fluoro-4-(4-fluoro-1-isopropyl-2-methyl-1H-benzo[d]imidazol-6-yl)pyrimidin-2-yl)amino)pyridin-3-yl)methyl)piperazin-1-yl)-N-hydroxyheptanamide]",100 to 500,< 10,10 to 100,10 to 100,10 to 100,
"Cc1nc2c(F)cc(-c3nc(Nc4ccc(C(=O)NO)nc4)ncc3F)cc2n1C(C)C [Compound 11, 5-((5-fluoro-4-(4-fluoro-1-isopropyl-2-methyl-1H-benzo[d]imidazol-6-yl)pyrimidin-2-yl)amino)-N-hydroxypicolinamide]",≥ 1000,< 10,< 10,10 to 100,≥ 1000,
"Cc1nc2c(F)cc(-c3nc(Nc4ccc(N(C)CCCCCCC(=O)NO)cn4)ncc3F)cc2n1C(C)C [Compound 3, 7-((6-((5-fluoro-4-(4-fluoro-1-isopropyl-2-methyl-1H-benzo[d]imidazol-6-yl)pyrimidin-2-yl)amino)pyridin-3-yl)(methyl)amino)-N-hydroxyheptanamide]",10 to 100,< 10,10 to 100,10 to 100,10 to 100,
"Cc1nc2c(F)cc(-c3nc(Nc4ccc(N(C)CCN(C)c5ncc(C(=O)NO)cn5)cn4)ncc3F)cc2n1C(C)C [Compound 2, 2-((2-((6-((5-fluoro-4-(4-fluoro-1-isopropyl-2-methyl-1H-benzo[d]imidazol-6-yl)pyrimidin-2-yl)amino)pyridin-3-yl)(methyl)amino)ethyl)(methyl)amino)-N-hydroxypyrimidine-5-carboxamide]",< 10,< 10,100 to 500,10 to 100,10 to 100,
"Cc1nc2c(F)cc(-c3nc(Nc4ccc(N5CCN(CCC(=O)NO)CC5)cn4)ncc3F)cc2n1C(C)C [Compound 14, 3-(4-(6-((5-fluoro-4-(4-fluoro-1-isopropyl-2-methyl-1H-benzo[d]imidazol-6-yl)pyrimidin-2-yl)amino)pyridin-3-yl)piperazin-1-yl)-N-hydroxypropanamide]",≥ 1000,< 10,10 to 100,10 to 100,500 to 1000,
"Cc1nc2c(F)cc(-c3nc(Nc4ccc(N5CCN(Cc6ccc(C(=O)NO)cc6)CC5)cn4)ncc3F)cc2n1C(C)C [Compound 8, 4-((4-(6-((5-fluoro-4-(4-fluoro-1-isopropyl-2-methyl-1H-benzo[d]imidazol-6-yl)pyrimidin-2-yl)amino)pyridin-3-yl)piperazin-1-yl)methyl)-N-hydroxybenzamide]",10 to 100,< 10,10 to 100,10 to 100,,< 10
"Cc1nc2c(F)cc(-c3nc(Nc4ccc(N5CCN(C(=O)CCCCCCC(=O)NO)CC5)cn4)ncc3F)cc2n1C(C)C [Compound 10, 8-(4-(6-((5-fluoro-4-(4-fluoro-1-isopropyl-2-methyl-1H-benzo[d]imidazol-6-yl)pyrimidin-2-yl)amino)pyridin-3-yl)piperazin-1-yl)-N-hydroxy-8-oxooctanamide]",100 to 500,< 10,10 to 100,< 10,,< 10
"Cc1nc2c(F)cc(-c3nc(Nc4cc(C(=O)NO)ccn4)ncc3F)cc2n1C(C)C [Compound 12, 2-((5-fluoro-4-(4-fluoro-1-isopropyl-2-methyl-1H-benzo[d]imidazol-6-yl)pyrimidin-2-yl)amino)-N-hydroxyisonicotinamide]",100 to 500,10 to 100,10 to 100,≥ 1000,10 to 100,
"Cc1nc2c(F)cc(-c3nc(Nc4ccc(N5CCN(CCCCC(=O)NO)CC5)cn4)ncc3F)cc2n1C(C)C [Compound 13, 5-(4-(6-((5-fluoro-4-(4-fluoro-1-isopropyl-2-methyl-1H-benzo[d]imidazol-6-yl)pyrimidin-2-yl)amino)pyridin-3-yl)piperazin-1-yl)-N-hydroxypentanamide]",≥ 1000,< 10,10 to 100,< 10,10 to 100,
"Cc1nc2c(F)cc(-c3nc(Nc4ccc(C(=O)NO)cn4)ncc3F)cc2n1C(C)C [Compound 4, 6-((5-fluoro-4-(4-fluoro-1-isopropyl-2-methyl-1H-benzo[d]imidazol-6-yl)pyrimidin-2-yl)amino)-N-hydroxynicotinamide]",100 to 500,< 10,100 to 500,100 to 500,,< 10
"Cc1nc2c(F)cc(-c3nc(Nc4ccc(N(C)Cc5ccc(C(=O)NO)cc5)cn4)ncc3F)cc2n1C(C)C [Compound 6, 4-(((6-((5-fluoro-4-(4-fluoro-1-isopropyl-2-methyl-1H-benzo[d]imidazol-6-yl)pyrimidin-2-yl)amino)pyridin-3-yl)(methyl)amino)methyl)-N-hydroxybenzamide]",100 to 500,< 10,< 10,10 to 100,10 to 100,
"Cc1nc2c(F)cc(-c3nc(Nc4ccc(N(C)Cc5ccc(/C=C/C(=O)NO)cc5)cn4)ncc3F)cc2n1C(C)C [Compound 7, (E)-3-(4-(((6-((5-fluoro-4-(4-fluoro-1-isopropyl-2-methyl-1H-benzo[d]imidazol-6-yl)pyrimidin-2-yl)amino)pyridin-3-yl)(methyl)amino)methyl)phenyl)-N-hydroxyacrylamide]",100 to 500,10 to 100,100 to 500,500 to 1000,10 to 100,
"Cc1nc2c(F)cc(-c3nc(Nc4ccc(N5CCN(CCCCCCC(=O)NO)CC5)cn4)ncc3F)cc2n1C(C)C [Compound 9, 7-(4-(6-((5-fluoro-4-(4-fluoro-1-isopropyl-2-methyl-1H-benzo[d]imidazol-6-yl)pyrimidin-2-yl)amino)pyridin-3-yl)piperazin-1-yl)-N-hydroxyheptanamide]",≥ 1000,< 10,10 to 100,10 to 100,,< 10
"Cc1nc2c(F)cc(-c3nc(Nc4ccc(C#CC(=O)NO)cn4)ncc3F)cc2n1C(C)C [Compound 17, 3-(6-((5-fluoro-4-(4-fluoro-1-isopropyl-2-methyl-1H-benzo[d]imidazol-6-yl)pyrimidin-2-yl)amino)pyridin-3-yl)-N-hydroxypropiolamide]",,< 10,,,,
"Cc1nc2c(F)cc(-c3nc(Nc4ccc(/C=C/C(=O)NO)cn4)ncc3F)cc2n1C(C)C [Compound 5, (E)-3-(6-((5-fluoro-4-(4-fluoro-1-isopropyl-2-methyl-1H-benzo[d]imidazol-6-yl)pyrimidin-2-yl)amino)pyridin-3-yl)-N-hydroxyacrylamide]",≥ 1000,< 10,10 to 100,100 to 500,10 to 100,
